Experimental data reported in patent US11839641B2, “Methods and compositions for treatment of lysosomal storage disorders” (JME Group Associates Inc., priority 2020, dated 2023).

How the values were obtained:
[1] = biological target: T1, Barley GAA (high-isoelectric-point (pI) α-glucosidase) (Hordeum vulgare, UniProt Q43763); settings: cited from earlier work
T1 sequence (Q43763 24-877): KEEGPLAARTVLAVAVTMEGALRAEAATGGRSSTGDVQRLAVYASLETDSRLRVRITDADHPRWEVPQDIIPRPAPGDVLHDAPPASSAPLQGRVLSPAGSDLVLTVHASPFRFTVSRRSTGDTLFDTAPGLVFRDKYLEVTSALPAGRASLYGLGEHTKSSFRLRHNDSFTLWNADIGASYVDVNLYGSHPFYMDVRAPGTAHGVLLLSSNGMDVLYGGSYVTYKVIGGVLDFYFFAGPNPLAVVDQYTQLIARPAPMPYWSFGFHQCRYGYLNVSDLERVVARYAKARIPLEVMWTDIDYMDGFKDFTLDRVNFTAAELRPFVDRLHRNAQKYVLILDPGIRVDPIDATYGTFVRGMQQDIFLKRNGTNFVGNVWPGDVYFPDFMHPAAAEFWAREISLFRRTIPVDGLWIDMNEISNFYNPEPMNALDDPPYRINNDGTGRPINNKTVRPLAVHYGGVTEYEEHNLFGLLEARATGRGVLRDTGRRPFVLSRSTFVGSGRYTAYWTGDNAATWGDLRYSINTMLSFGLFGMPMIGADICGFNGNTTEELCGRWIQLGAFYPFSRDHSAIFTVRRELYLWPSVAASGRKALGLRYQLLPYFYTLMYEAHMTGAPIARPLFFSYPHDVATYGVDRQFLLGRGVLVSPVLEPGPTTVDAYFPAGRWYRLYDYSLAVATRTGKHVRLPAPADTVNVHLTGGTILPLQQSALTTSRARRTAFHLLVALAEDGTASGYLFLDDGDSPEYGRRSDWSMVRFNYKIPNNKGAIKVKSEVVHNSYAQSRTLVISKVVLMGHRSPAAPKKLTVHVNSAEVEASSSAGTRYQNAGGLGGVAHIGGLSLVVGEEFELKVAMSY

GAA KO mice = settings: cited from earlier work
[2] = test system: GAA KO mice white blood cells; assay: Uptake of GGB crude lysate by GAA KO mouse white blood cells ± mannose-6-phosphate; assay type: cell-based; settings: 5 mM mannose-6-phosphate
Procedure: (§1) Uptake of a crude lysate of 7-8 day GGB by white blood cells (“WBC”) from humans and GAA KO mice was tested. Each treatment was performed±5 mM mannose-6 phosphate. Mannose-6 phosphate treatment blocks uptake by the M-6-P receptor (Martiniuk et al., “Further Studies of The Structure of Human Placental Acid Alpha-Glucosidase,” Arch Biochem Biophys 231:454-460 (1984); Martiniuk et al., “Production of a Functional Human Acid Maltase in Tobacco Seeds: Biochemical Analysis, Uptake by Human GSDII Cells, and in vivo Studies in GAA Knockout Mice,” Appl Biochem Biotechnol 171:916-926 (2013), each of which is hereby incorporated by reference in their entirety). Human placental GAA (hGAA) was used as a positive control. Anti-coagulate-EDTA was added at 1.5 to 2.0 mg/ml of whole blood. 0.15 ml of human and mouse KO blood was used and a 14×RBC lysing solution (NH4Cl (ammonium chloride)—8.02 g; NaHCO3 (sodium bicarbonate)—0.84 g; EDTA (disodium)—0.37 g to 100 ml with water) was added in a 1.5 ml microfuge tube, inverted for 10 minutes at RT until the liquid was clear red followed by spinning for 1 minute in a microfuge. The supernatant was decanted, cells were washed with phosphate buffered saline (PBS) and re-suspend in 2.4 ml complete DMEM-10% FBS (Life Technologies). […]

human white blood cells = assay: Uptake of GGB crude lysate by human white blood cells; assay type: cell-based; settings: 18 hrs at 37° C.
Procedure: as §1

Molecule: C[C@H]1O[C@H](O[C@H]2[C@H](O)[C@@H](O)[C@@H](O[C@H]3[C@H](O)[C@@H](O)C(O)O[C@@H]3CO)O[C@@H]2CO)[C@H](O)[C@@H](O)[C@@H]1N[C@H]1C=C(CO)[C@@H](O)[C@H](O)[C@H]1O (stereo partly drawn) [Acarbose]
- Ki [1]: 1500 nM

Molecule: rhGAA: recombinant human GAA
- Glycogen reduction (GAA KO mice; 20 mg/kg/wk for 5 mo., skeletal muscle): < 50%
- enzyme uptake by skeletal muscle compared to liver and heart (GAA KO mice; 20 mg/kg/wk for 5 mo.): minimal
- glycogen clearance in skeletal muscle (GAA KO mice; 100 mg/kg/wk): ~75%

Molecule: placental hGAA: Human placental GAA (hGAA) used as a positive control
- uptake with mannose-6-phosphate [2]: blocked
- GAA/NAG ratio compared to mock treated cells (human white blood cells): higher ratios of GAA/NAG
